# Experimental data as given in PubChem BioAssay AID2060502 (Molecular Pharmacology Branch, DTP, NCI, 2025).
# pIC50: −log10 of the molar value.
# Tested on: 885724-159-R-J1-PDC complex spheroid viability
# Experiment: Anticancer human tumor 885724-159-R-J1-PDC patient-derived pancreatic adenocarcinoma cell line growth inhibition [GQUAD]
# Conditions: for pIC50: curve of first compound; for viability, T/C: stronger effect = lower value
# In short: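 Multi-cell-type spheroids of tumor cells with HUVEC and mesenchymal stem cells, treated with drug combinations. Concentrations descend in half-log steps from near clinical Cmax, or from 10 microM where Cmax is unknown; viability read-out.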
# [1] = second compound 0.0316 µM, first compound 0.0316 µM
# [2] = second compound 0.0316 µM, first compound 0.1 µM
# [3] = second compound 0.0316 µM, first compound 0.316 µM
# [4] = second compound 0.0316 µM, first compound 1 µM
# [5] = second compound 0.0316 µM, first compound 3.16 µM
# [6] = second compound 0.0316 µM, first compound 10 µM
# [7] = second compound 0.1 µM, first compound 0.0316 µM
# [8] = second compound 0.1 µM, first compound 0.1 µM
# [9] = second compound 0.1 µM, first compound 0.316 µM
# [10] = second compound 0.1 µM, first compound 1 µM
# [11] = second compound 0.1 µM, first compound 3.16 µM
# [12] = second compound 0.1 µM, first compound 10 µM
# [13] = second compound 0.316 µM, first compound 0.0316 µM
# [14] = second compound 0.316 µM, first compound 0.1 µM
# [15] = second compound 0.316 µM, first compound 0.316 µM
# [16] = second compound 0.316 µM, first compound 1 µM
# [17] = second compound 0.316 µM, first compound 3.16 µM
# [18] = second compound 0.316 µM, first compound 10 µM
# [19] = second compound 1 µM, first compound 0.0316 µM
# [20] = second compound 1 µM, first compound 0.1 µM
# [21] = second compound 1 µM, first compound 0.316 µM
# [22] = second compound 1 µM, first compound 1 µM
# [23] = second compound 1 µM, first compound 3.16 µM
# [24] = second compound 1 µM, first compound 10 µM
# [25] = second compound 3.16 µM, first compound 0.0316 µM
# [26] = second compound 3.16 µM, first compound 0.1 µM
# [27] = second compound 3.16 µM, first compound 0.316 µM
# [28] = second compound 3.16 µM, first compound 1 µM
# [29] = second compound 3.16 µM, first compound 3.16 µM
# [30] = second compound 3.16 µM, first compound 10 µM
# [31] = second compound 10 µM, first compound 0.0316 µM
# [32] = second compound 10 µM, first compound 0.1 µM
# [33] = second compound 10 µM, first compound 0.316 µM
# [34] = second compound 10 µM, first compound 1 µM
# [35] = second compound 10 µM, first compound 3.16 µM
# [36] = second compound 10 µM, first compound 10 µM
# 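Also: spheroids exposed to agents for seven days before readout.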
# 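For viability, T/C in this document: percent of vehicle control viability where 100% = DMSO wells.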
smiles,measurement,setting,value
CC(C)(O)C1CCC(Nc2ccc3ncc(-c4cccc(C(F)(F)F)c4)n3n2)CC1 (stereo not drawn) + CN(C)c1ccc(Nc2c3ccc(NC(=O)CCN4CCCC4)cc3nc3cc(NC(=O)CCN4CCCC4)ccc23)cc1,pIC50,second compound 0.0316 µM,5.56
same,pIC50,second compound 0.1 µM,5.50
same,pIC50,second compound 0.316 µM,5.73
same,pIC50,second compound 1 µM,5.79
same,pIC50,second compound 3.16 µM,6.12
same,pIC50,second compound 10 µM,5.92
same,"viability, T/C",[1],109%
same,"viability, T/C",[2],98%
same,"viability, T/C",[3],87%
same,"viability, T/C",[4],70.5%
same,"viability, T/C",[5],42.1%
same,"viability, T/C",[6],41.2%
same,"viability, T/C",[7],97.7%
same,"viability, T/C",[8],92.8%
same,"viability, T/C",[9],80.3%
same,"viability, T/C",[10],71.2%
same,"viability, T/C",[11],44.8%
same,"viability, T/C",[12],44.1%
same,"viability, T/C",[13],83.7%
same,"viability, T/C",[14],84.2%
same,"viability, T/C",[15],71.6%
same,"viability, T/C",[16],64.1%
same,"viability, T/C",[17],38%
same,"viability, T/C",[18],35.7%
same,"viability, T/C",[19],83.6%
same,"viability, T/C",[20],67.9%
same,"viability, T/C",[21],71.1%
same,"viability, T/C",[22],62.3%
same,"viability, T/C",[23],30.5%
same,"viability, T/C",[24],35.6%
same,"viability, T/C",[25],76.1%
same,"viability, T/C",[26],75.6%
same,"viability, T/C",[27],65.9%
same,"viability, T/C",[28],44.5%
same,"viability, T/C",[29],27.9%
same,"viability, T/C",[30],19.3%
same,"viability, T/C",[31],62%
same,"viability, T/C",[32],63.5%
same,"viability, T/C",[33],57.3%
same,"viability, T/C",[34],55.7%
same,"viability, T/C",[35],20.6%
same,"viability, T/C",[36],7.17%
COc1ncnc(C2CC2)c1-c1ncc2cnn(Cc3ccc(-c4nc(C(F)(F)F)cn4C(C)C)cc3)c2n1 + CN(C)c1ccc(Nc2c3ccc(NC(=O)CCN4CCCC4)cc3nc3cc(NC(=O)CCN4CCCC4)ccc23)cc1,pIC50,second compound 0.0316 µM,< 5.00
same,pIC50,second compound 0.1 µM,< 5.00
same,pIC50,second compound 0.316 µM,< 5.00
same,pIC50,second compound 1 µM,< 5.00
same,pIC50,second compound 3.16 µM,< 5.00
same,pIC50,second compound 10 µM,< 5.00
same,"viability, T/C",[1],96.8%
same,"viability, T/C",[2],101%
same,"viability, T/C",[3],85.6%
same,"viability, T/C",[4],86.9%
same,"viability, T/C",[5],81.4%
same,"viability, T/C",[6],105%
same,"viability, T/C",[7],103%
same,"viability, T/C",[8],88.2%
same,"viability, T/C",[9],96.9%
same,"viability, T/C",[10],98%
same,"viability, T/C",[11],95%
same,"viability, T/C",[12],94.5%
same,"viability, T/C",[13],97.6%
same,"viability, T/C",[14],86.1%
same,"viability, T/C",[15],82.3%
same,"viability, T/C",[16],80.1%
same,"viability, T/C",[17],101%
same,"viability, T/C",[18],95.7%
same,"viability, T/C",[19],77.5%
same,"viability, T/C",[20],70.4%
same,"viability, T/C",[21],81.1%
same,"viability, T/C",[22],67.7%
same,"viability, T/C",[23],79.3%
same,"viability, T/C",[24],83.1%
same,"viability, T/C",[25],79.2%
same,"viability, T/C",[26],76.7%
same,"viability, T/C",[27],68.8%
same,"viability, T/C",[28],58%
same,"viability, T/C",[29],77.4%
same,"viability, T/C",[30],78.1%
same,"viability, T/C",[31],61.3%
same,"viability, T/C",[32],66.5%
same,"viability, T/C",[33],73.5%
same,"viability, T/C",[34],70.5%
same,"viability, T/C",[35],63.1%
same,"viability, T/C",[36],47.8%
O=C(NO)c1cnc(N2CCN(S(=O)(=O)c3ccc4ccccc4c3)CC2)nc1 + CN(C)c1ccc(Nc2c3ccc(NC(=O)CCN4CCCC4)cc3nc3cc(NC(=O)CCN4CCCC4)ccc23)cc1,pIC50,second compound 0.0316 µM,6.17
same,pIC50,second compound 0.1 µM,6.15
same,pIC50,second compound 0.316 µM,6.24
same,pIC50,second compound 1 µM,6.30
same,pIC50,second compound 3.16 µM,6.28
same,pIC50,second compound 10 µM,6.66
same,"viability, T/C",[1],91.8%
same,"viability, T/C",[2],117%
same,"viability, T/C",[3],78.7%
same,"viability, T/C",[4],35.9%
same,"viability, T/C",[5],0.8%
same,"viability, T/C",[6],0.93%
same,"viability, T/C",[7],106%
same,"viability, T/C",[8],100%
same,"viability, T/C",[9],86.5%
same,"viability, T/C",[10],34.5%
same,"viability, T/C",[11],0.82%
same,"viability, T/C",[12],0.44%
same,"viability, T/C",[13],83.7%
same,"viability, T/C",[14],91.2%
same,"viability, T/C",[15],75.6%
same,"viability, T/C",[16],26.5%
same,"viability, T/C",[17],1.07%
same,"viability, T/C",[18],1.4%
same,"viability, T/C",[19],80.4%
same,"viability, T/C",[20],68.9%
same,"viability, T/C",[21],64.2%
same,"viability, T/C",[22],29.9%
same,"viability, T/C",[23],1.26%
same,"viability, T/C",[24],0.73%
same,"viability, T/C",[25],71.7%
same,"viability, T/C",[26],64.6%
same,"viability, T/C",[27],76.8%
same,"viability, T/C",[28],22%
same,"viability, T/C",[29],1.42%
same,"viability, T/C",[30],0.69%
same,"viability, T/C",[31],61%
same,"viability, T/C",[32],59%
same,"viability, T/C",[33],43.7%
same,"viability, T/C",[34],26.7%
same,"viability, T/C",[35],1.36%
same,"viability, T/C",[36],2.05%
CC1COCCN1c1cc(-c2ccnn2C)c2ccnc(-c3ccn[nH]3)c2n1 (stereo not drawn) + Cc1[nH]c2ccc(F)cc2c1-c1nc2c3cccnc3c3ncccc3c2[nH]1,pIC50,second compound 0.0316 µM,< 5.00
same,pIC50,second compound 0.1 µM,< 5.00
same,pIC50,second compound 0.316 µM,5.07
same,pIC50,second compound 1 µM,5.55
same,pIC50,second compound 3.16 µM,7.28
same,pIC50,second compound 10 µM,5.30
same,"viability, T/C",[1],104%
same,"viability, T/C",[2],87.3%
same,"viability, T/C",[3],87.2%
same,"viability, T/C",[4],76.9%
same,"viability, T/C",[5],53.3%
same,"viability, T/C",[6],53.8%
same,"viability, T/C",[7],99.7%
same,"viability, T/C",[8],104%
same,"viability, T/C",[9],89.8%
same,"viability, T/C",[10],73.5%
same,"viability, T/C",[11],62.5%
same,"viability, T/C",[12],51.8%
same,"viability, T/C",[13],98.7%
same,"viability, T/C",[14],84.7%
same,"viability, T/C",[15],68.7%
same,"viability, T/C",[16],61.1%
same,"viability, T/C",[17],56.6%
same,"viability, T/C",[18],48%
same,"viability, T/C",[19],80.4%
same,"viability, T/C",[20],68.9%
same,"viability, T/C",[21],63.8%
same,"viability, T/C",[22],54.5%
same,"viability, T/C",[23],51%
same,"viability, T/C",[24],43.5%
same,"viability, T/C",[25],54.8%
same,"viability, T/C",[26],39.6%
same,"viability, T/C",[27],47.9%
same,"viability, T/C",[28],28.2%
same,"viability, T/C",[29],24.8%
same,"viability, T/C",[30],30.6%
same,"viability, T/C",[31],66.3%
same,"viability, T/C",[32],66%
same,"viability, T/C",[33],62.9%
same,"viability, T/C",[34],52.9%
same,"viability, T/C",[35],51.8%
same,"viability, T/C",[36],47.9%
